Values after ≈ are worked out from the molar mass of the structure shown. Values joined by “and” are separate entries in the source; they are usually repeats but may differ in a detail not shown here. Equal entries are not always repeated.

Among the test systems are Escherichia coli 078; Escherichia coli UB1005; Streptococcus agalactiae; Escherichia coli; Listeria innocua; Micrococcus luteus A270; Bacillus subtilis C971; Escherichia coli DC2.
Common to all, as to experiment: ≥ marks a high value that may be exact or a test limit, other limits are often not marked, values filed in µg/mL are converted to µM
Assay [1] concerns Escherichia coli ATCC 25922.
Assay [2] has as its system Lacticaseibacillus rhamnosus 7469.
Assay [3] relates to Pseudomonas aeruginosa ATCC 27853.
In assay [4] the test system is Salmonella enterica subsp. enterica serovar Pullorum ATCC 7913.
Assay [5] deals with Salmonella enterica subsp. enterica serovar Typhimurium ATCC 14028.
The test system of assay [6] is Salmonella enterica subsp. enterica serovar Typhimurium C77-31.
The test system of assay [7] is Staphylococcus aureus ATCC 25923.
For assay [8], the system named is Staphylococcus aureus ATCC 29213.
The test system of assay [9] is Staphylococcus epidermidis ATCC 12228.
Assay [10] deals with Streptococcus agalactiae CICC 10465.
Assay [11] has as its system Streptococcus thermophilus YM-C.
The subject of assay [12] is Salmonella enterica subsp. enterica serovar Enteritidis.
The test system of assay [13] is Pseudomonas aeruginosa Ps4.
Assay [14] deals with Corynebacterium xerosis C875.
Assay [15] concerns Enterococcus faecalis C625.
The test system of assay [16] is Pseudomonas aeruginosa H187.
Assay [17] relates to Pseudomonas aeruginosa H188.
Assay [18] relates to Salmonella typhimurium C587.
In assay [19] the test system is Salmonella typhimurium C610.
The test system of assay [20] is Staphylococcus aureus SAP 0017.
Assay [21] has as its system Staphylococcus epidermidis C621.

On to `CC[C@H](C)[C@H](NC(=O)[C@H](CC(C)C)NC(=O)[C@@H](NC(=O)[C@@H](N)CC(=O)O)[C@@H](C)CC)C(=O)N[C@H](C(=O)N[C@H](C(=O)NCC(=O)NCC(=O)N[C@@H](CCCCN)C(=O)N[C@@H](CCCN=C(N)N)C(=O)N[C@@H](CCCN=C(N)N)C(=O)N[C@@H](CCCCN)C(=O)N[C@@H](CCCCN)C(=O)N[C@@H](CCCN=C(N)N)C(=O)N[C@@H](CCCN=C(N)N)C(=O)N[C@@H](CCCN=C(N)N)C(N)=O)C(C)C)[C@@H](C)CC` [DILIIVGGKRRKKRRR], for which the MIC in the assay with Escherichia coli 078 was 8 µM (≈ 15.7 µg/mL); in assay [1] it was 4 µM (≈ 7.85 µg/mL); against Escherichia coli UB1005, 4 µM (≈ 7.85 µg/mL); in assay [2] it was no less than 64 µM; in assay [3], 4 µM (≈ 7.85 µg/mL); in assay [4], 8 µM (≈ 15.7 µg/mL). Further, the MIC stood at 8 µM (≈ 15.7 µg/mL) in assay [5]; 8 µM (≈ 15.7 µg/mL) in assay [6]; 4 µM (≈ 7.85 µg/mL) in assay [7]; 4 µM (≈ 7.85 µg/mL) in assay [8]; 8 µM (≈ 15.7 µg/mL) in [9]; 2 µM (≈ 3.93 µg/mL) in assay [10]. Also, the MIC in the assay on Streptococcus agalactiae is 4 µM (≈ 7.85 µg/mL); in [11] it was no less than 64 µM.
Regarding `CC[C@H](C)[C@H](NC(=O)[C@H](CC(C)C)NC(=O)[C@@H](NC(=O)[C@@H](N)CC(=O)O)[C@@H](C)CC)C(=O)N[C@H](C(=O)N[C@H](C(=O)NCC(=O)NCC(=O)N[C@@H](CCCN=C(N)N)C(=O)N[C@@H](CCCN=C(N)N)C(N)=O)C(C)C)[C@@H](C)CC` [DILIIVGGRR], the MIC in the assay with Escherichia coli 078 is no less than 64 µM; in [1], greater than 64 µM; in the assay on Escherichia coli UB1005, no less than 64 µM; in [2], no less than 64 µM; in assay [3], greater than 64 µM; in assay [4], no less than 64 µM. The MIC in assay [5] was greater than 64 µM; in assay [6], no less than 64 µM; in assay [7] it was greater than 64 µM; in assay [8], greater than 64 µM; in assay [9] it was greater than 64 µM; in assay [10] it was no less than 64 µM. The MIC (in the assay on Streptococcus agalactiae; in assay [11]) was no less than 64 µM in each case.
Consider `C[C@@H](O)[C@H](NC(=O)[C@H](CCCCN)NC(=O)[C@@H](NC(=O)[C@@H](NC(=O)[C@@H]1CCCN1C(=O)[C@@H](N)Cc1ccccc1)[C@@H](C)O)[C@@H](C)O)C(=O)N[C@@H](Cc1ccc(O)cc1)C(=O)N[C@@H](Cc1ccccc1)C(=O)N1CCC[C@H]1C(=O)N[C@@H](Cc1cnc[nH]1)C(=O)O` [FPTTKTYFPH], for which the MIC stood at 9 µM (≈ 11.1 µg/mL) in the assay with Escherichia coli, 1 µM (≈ 1.24 µg/mL) in the assay with Listeria innocua, 1 µM (≈ 1.24 µg/mL) against Micrococcus luteus A270 and 9 µM (≈ 11.1 µg/mL) in assay [12].
For the molecule `CC(C)C[C@H](NC(=O)[C@H](CCCN=C(N)N)NC(=O)[C@H](CC(C)C)NC(=O)[C@H](CC(N)=O)NC(=O)[C@H](CCCN=C(N)N)NC(=O)[C@H](CCC(N)=O)NC(=O)[C@H](Cc1c[nH]c2ccccc12)NC(=O)[C@@H](N)Cc1ccccc1)C(=O)N[C@@H](CCCN=C(N)N)C(=O)N[C@@H](CCCN=C(N)N)C(N)=O` [FWQRNLRLRR], the MIC in assay [13] is no less than 173 µM.
For the molecule `CC[C@H](C)[C@H](NC(=O)[C@H](CC(N)=O)NC(=O)[C@H](CCCN=C(N)N)NC(=O)[C@H](Cc1c[nH]c2ccccc12)NC(=O)[C@@H](N)Cc1ccccc1)C(=O)N[C@@H](CCCN=C(N)N)C(=O)N[C@@H](CCCCN)C(=O)N[C@H](C(=O)N[C@@H](CCCN=C(N)N)C(N)=O)C(C)C` [FWRNIRKVR], the MIC in [13] is no less than 196 µM.
In the case of `CC[C@H](C)[C@H](NC(=O)[C@H](C)NC(=O)[C@H](CCCCN)NC(=O)[C@H](CC(C)C)NC(=O)[C@H](C)NC(=O)[C@@H](NC(=O)[C@H](Cc1cnc[nH]1)NC(=O)[C@H](CC(C)C)NC(=O)[C@@H](NC(=O)[C@@H](NC(=O)[C@H](CCCCN)NC(=O)[C@@H](NC(=O)[C@H](C)NC(=O)[C@H](CCCCN)NC(=O)[C@H](CCCCN)NC(=O)[C@H](Cc1ccccc1)NC(=O)[C@@H](NC(=O)[C@H](CCCCN)NC(=O)[C@H](CC(C)C)NC(=O)[C@H](Cc1ccccc1)NC(=O)[C@H](CO)NC(=O)[C@H](CCCCN)NC(=O)[C@H](Cc1c[nH]c2ccccc12)NC(=O)[C@H](CCCCN)NC(C)=O)[C@@H](C)O)C(C)C)[C@@H](C)O)C(C)C)[C@@H](C)O)C(=O)N[C@@H](CO)C(=O)N[C@@H](CO)C(N)=O` [KWKSFLKTFKKAVKTVLHTALKAISS], the minimal inhibitory concentration (MIC) is 1.08 µM (≈ 3.24 µg/mL) against Bacillus subtilis C971; 1.35 µM (≈ 4.06 µg/mL) in assay [14]; 10.8 µM (≈ 32.4 µg/mL) in assay [15]; 1.35 µM (≈ 4.06 µg/mL) in the assay on Escherichia coli DC2; 3.41 µM (≈ 10.2 µg/mL) against Escherichia coli UB1005; 8.58 µM (≈ 25.8 µg/mL) in [16]. Also, the MIC in [17] came out at 10.8 µM (≈ 32.4 µg/mL); in assay [18], 8.58 µM (≈ 25.8 µg/mL); in assay [19], 2.7 µM (≈ 8.11 µg/mL); in assay [7], 10.8 µM (≈ 32.4 µg/mL); in [20], 5.4 µM (≈ 16.2 µg/mL); in assay [21], 2.16 µM (≈ 6.49 µg/mL).
`CC[C@H](C)[C@H](NC(=O)[C@H](C)NC(=O)[C@H](CCCCN)NC(=O)[C@H](CC(C)C)NC(=O)[C@H](C)NC(=O)[C@@H](NC(=O)[C@H](Cc1cnc[nH]1)NC(=O)[C@H](CC(C)C)NC(=O)[C@@H](NC(=O)[C@@H](NC(=O)[C@H](CCCCN)NC(=O)[C@H](CC(C)C)NC(=O)[C@H](C)NC(=O)[C@H](CO)NC(=O)[C@H](CCCCN)NC(=O)[C@H](Cc1ccccc1)NC(=O)[C@@H](NC(=O)[C@H](CCCCN)NC(=O)[C@H](CC(C)C)NC(=O)[C@H](Cc1ccccc1)NC(=O)[C@H](CO)NC(=O)[C@H](CCCCN)NC(=O)[C@H](Cc1c[nH]c2ccccc12)NC(=O)[C@H](CCCCN)NC(C)=O)[C@@H](C)O)[C@@H](C)O)C(C)C)[C@@H](C)O)C(=O)N[C@@H](CO)C(=O)N[C@@H](CO)C(N)=O` [KWKSFLKTFKSALKTVLHTALKAISS]: the MIC in the assay on Bacillus subtilis C971 was determined as 1.09 µM (≈ 3.24 µg/mL); in assay [14] it was 0.852 µM (≈ 2.53 µg/mL); in assay [15], 10.9 µM (≈ 32.4 µg/mL); in assay [1], 4 µM (≈ 11.9 µg/mL); against Escherichia coli DC2, 1.7 µM (≈ 5.07 µg/mL); against Escherichia coli UB1005, 2.18 µM (≈ 6.49 µg/mL). Also, the MIC in assay [3] is 8 µM (≈ 23.8 µg/mL); in assay [16], 4.33 µM (≈ 12.9 µg/mL); in assay [17], 10.9 µM (≈ 32.4 µg/mL); in assay [18], 10.9 µM (≈ 32.4 µg/mL); in assay [19] it was 3.44 µM (≈ 10.2 µg/mL); in assay [7] it was 10.9 µM and 8 µM. In addition, the MIC amounted to 8.66 µM (≈ 25.8 µg/mL) in assay [20], 2 µM (≈ 5.95 µg/mL) in [9] and 2.73 µM (≈ 8.11 µg/mL) in assay [21].
Consider `CC(C)C[C@H](NC(=O)[C@@H](N)C(C)C)C(=O)N[C@@H](CO)C(=O)N[C@@H](C)C(=O)N[C@@H](C)C(=O)N[C@@H](CC(=O)O)C(=O)N[C@@H](CCCCN)C(=O)NCC(=O)N[C@@H](CC(N)=O)C(=O)N[C@H](C(=O)N[C@@H](CCCCN)C(=O)N[C@@H](C)C(=O)N[C@@H](C)C(=O)N[C@@H](Cc1c[nH]c2ccccc12)C(=O)NCC(=O)N[C@@H](CCCCN)C(=O)N[C@H](C(=O)NCC(=O)NCC(=O)N[C@@H](Cc1cnc[nH]1)C(=O)N[C@@H](C)C(=O)N[C@@H](C)C(=O)N[C@@H](CCC(=O)O)C(=O)N[C@@H](Cc1ccc(O)cc1)C(=O)NCC(=O)N[C@@H](C)C(=O)N[C@@H](CCC(=O)O)C(=O)O)C(C)C)C(C)C` [VLSAADKGNVKAAWGKVGGHAAEYGAE], for which the MIC in the assay on Escherichia coli was 54 µM (≈ 143 µg/mL); against Listeria innocua, 27 µM (≈ 71.7 µg/mL); against Micrococcus luteus A270, no less than 38 µM; in assay [12], no less than 38 µM.

By MIC is commonly meant the smallest concentration in the dilution series that meets the test's criterion for growth inhibition. A lower MIC goes with greater potency.

These data come from DBAASP.
